Source: the NIST ThermoML archive (doi:10.1016/j.jct.2016.09.026)

Columns and labels:
[1] = molar enthalpy of vaporization or sublimation; settings: 381.12 K; Crystal; Static calorimetry
[2] = molar heat capacity at constant pressure; settings: 101.33 kPa, Crystal, Small sample (50 mg) DSC
[3] = Crystal
[4] = Molar enthalpy of transition or fusion; settings: Crystal; DSC

CCC(=O)c1ccc(O)cc1 [1-(4-hydroxyphenyl)-1-propanone]
Settings	Molar enthalpy of transition or fusion [kcal/mol]	molar enthalpy [kcal/mol]
[1]	–	26.87
[4]	7.56	–

Settings	Normal melting temperature [°C]	molar heat capacity at constant pressure [J/K/mol]
[2], 288.66 K	–	188.2
[2], 289.98 K	–	188.2
[2], 291.28 K	–	189.2
[2], 292.55 K	–	189.9
[2], 293.82 K	–	190.1
[2], 295.08 K	–	191.4
[2], 296.34 K	–	192.1
[2], 297.6 K	–	192.7
[2], 298.85 K	–	192.9
[2], 300.11 K	–	193.6
[2], 301.36 K	–	194.5
[2], 302.61 K	–	195.3
[2], 303.87 K	–	196.9
[2], 305.13 K	–	197.5
[2], 306.38 K	–	198.3
[2], 307.64 K	–	198.5
[2], 308.89 K	–	199.3
[2], 310.14 K	–	199.8
[2], 311.39 K	–	201
[2], 312.64 K	–	201.7
[2], 313.9 K	–	202.7
[2], 315.15 K	–	203.5
[2], 316.4 K	–	203.9
[2], 317.65 K	–	204.9
[2], 318.9 K	–	204.9
[2], 320.15 K	–	206.1
[2], 321.41 K	–	206.9
[2], 322.66 K	–	207.6
[2], 323.91 K	–	208.3
[2], 325.16 K	–	209.1
[2], 326.41 K	–	209.8
[2], 327.66 K	–	210.5
[2], 328.91 K	–	211.5
[2], 330.16 K	–	212
[2], 331.41 K	–	212.6
[2], 332.66 K	–	213.6
[2], 333.91 K	–	214.1
[2], 335.16 K	–	215
[2], 336.41 K	–	216.1
[2], 337.66 K	–	216.6
[2], 338.91 K	–	217.2
[2], 340.16 K	–	217.3
[2], 341.41 K	–	218.3
[2], 342.66 K	–	219.2
[2], 343.91 K	–	220.2
[2], 345.16 K	–	220.7
[2], 346.41 K	–	222
[2], 347.66 K	–	222.2
[2], 348.91 K	–	223.1
[2], 350.15 K	–	223.8
[2], 351.4 K	–	225
[2], 352.65 K	–	225.9
[2], 353.9 K	–	226.5
[2], 355.15 K	–	226.9
[2], 356.4 K	–	227.5
[2], 357.65 K	–	228.2
[2], 358.9 K	–	228.9
[2], 360.15 K	–	229.6
[2], 361.4 K	–	230.9
[2], 362.65 K	–	231.4
[2], 363.9 K	–	232.2
[2], 365.15 K	–	232.7
[2], 366.39 K	–	233.5
[2], 367.65 K	–	235.1
[2], 368.9 K	–	235.7
[2], 370.15 K	–	236.6
[2], 371.4 K	–	237.2
[2], 372.65 K	–	237.9
[2], 373.9 K	–	238.7
[2], 375.15 K	–	239.3
[2], 376.4 K	–	240.8
[2], 377.64 K	–	241.3
[2], 378.89 K	–	242.4
[2], 380.14 K	–	243.1
[2], 381.39 K	–	243.7
[2], 382.64 K	–	244.3
[2], 383.89 K	–	245.9
[3], DTA	148.5	–

Settings	mass density [kg/m3]
[3], 298 K, 101.33 kPa, X-ray diffraction	1273.1
